This is an account of results in patent publication US20200205318A1, “HEAT TRANSFER FLUIDS, METHODS AND SYSTEMS” (priority 2018, published 2020).

Data set [1] can be described thus: Electrical conductivity (ASTM D 2624). The class given is physicochemical. The following applies: at 22° C. The procedure:
(§1) Applicants have unexpectedly discovered that TFMCB not only meets the challenging performance requirements for high temperature heat transfer applications and for electronic cooling but also satisfies exacting environmental and safety requirements. […] In particular, applicants have determined that TFMCB has a measured dielectric constant of 20 at 22° C. as determined by ASTM D2477-07 and has a measured electrical conductivity of less than 10 nS/cm at 22° C. as determined by ASTM D 2624.

Data set [2] in a line: Dielectric constant (ASTM D2477-07). The class given is physicochemical. The following applies: at 22° C. The procedure:
as §1

Data set [3] in a line: Acute inhalation toxicity (OECD Guideline No. 403). The format is in vivo. The following applies: statement in words. An excerpt: LC50 is a measure of the acute toxicity of a compound. The acute inhalation toxicity of a compound can be assessed using the method described in the OECD Guideline for Testing of Chemicals No. 403 “Acute Inhalation Toxicity” (2009), Method B.2. (Inhalation) of Commission Regulation (EC) No. 440/2008.

A short description of data set [4]: Flammability / flash point (ASTM D3828, NFPA 30). The format is physicochemical. The procedure: The flash pint of a thermal management fluid refers the lowest temperature at which vapors of the liquid will keep burning after the ignition source is removed as determined in accordance with ASTM D3828.
“Non-flammable” in the context of a thermal management composition or fluid means compounds or compositions which are determined to be non-flammable. The flash point of a thermal management composition or fluid refers the lowest temperature at which vapors of the composition will keep burning after the ignition source is removed as determined in accordance with ASTM D3828.

In the case of `FC(F)(F)C1(F)CCC1(F)F` (centres unmarked) [TFMCB, 1-trifluoromethyl-1,2,2-trifluorocyclobutane], the electrical conductivity result in data set [1] is recorded as “less than 10 nS/cm”. For the same molecule, the dielectric constant in data set [2] came to 20. Further, in data set [3], the toxicity result is given as “low levels of toxicity”. The flammability entry in data set [4] is “non-flammable”. In addition, in data set [4] (ASTM D3828), the flash point result is recorded as “no flash point below 100° F”.
